Assay results: patent US8138351B2, “Treatment of duchenne muscular dystrophy” (Summit Corporation PLC, priority 2007, dated 2012)

Tested on: Utrophin A promoter linked to a luciferase reporter gene (H2K/mdx/Utro A reporter cell line)
Experiment: Luciferase reporter assay (murine H2K cells)
Assay type: cell-based, mouse
Settings: final concentration of 10 μM, 48 hrs
Experimental: 1. Luciferase Reporter Assay (Murine […] Cells) The cell line used for the screen is an immortalized mdx mouse H2K cell line that has been stably transfected with a plasmid containing ≈5 kb fragment of the Utrophin A promoter including the first untranslated exon linked to a luciferase reporter gene (see FIG. 1). Under conditions of low temperature and interferon containing media, the cells remain as myoblasts. These are plated into 96 well plates and cultured in the presence of compound for three days. The level of luciferase is then determined by cell lysis and reading of the light output from the expressed luciferase gene utilising a plate luminometer. The H2K/mdx/Utro A Reporter Cell Line Maintenance The H2K/mdx/Utro A reporter cell line was passaged twice a week until ≦30% confluent. The cells were grown at 33° C. in the presence of 10% CO2. To remove the myoblasts for platting, they were incubated with Trypsin/EDTA until the monolayer started to detach. […] Cells were then lysed in situ following the manufacture's protocols (Promega Steady-Glo Luciferase Assay System (E2520), then counted for 10 seconds using a plate luminometer (Victor1420). Biological activity was assessed using the luciferase reporter assay in murine H2K cells, and is classified as follows: […]

**Q.** Which “Biological activity, luciferase reporter assay, relative to control” value does the source give for `CCS(=O)(=O)c1ccc2oc(-c3ccc4ccccc4c3)nc2c1` [5-(ethylsulfonyl)-2-(naphthalen-2-yl)benzo[d]oxazole] here?
**A.** +++ (Between 301% and 400% relative to control)
